Source: patent US11628186B2, “Method and composition for the reduction of viral replication, duration and spread of the COVID-19 and the flu” (priority 2017, dated 2023)
Read-outs that look alike come from different tables or passages of the source.

What was measured:
[1] = tested on: non-cancerous cells; assay: Viable non-cancerous cells after incubation with anticancer drugs in various media (Table VIII); assay type: cell-based; design: viability: concentration or dose not given beside the values; conditions: for Percentage of viable cells after incubation with drugs: drug alone
Experimental: (§1) Peripheral blood monocytes and U937 monocytic leukemia tumor cells were placed in sterile culture flasks and maintained in culture using Dulbecco's Minimal Essential Medium, with 10% fetal calf serum, supplemented with 2 mM glutamine and Pen/Strep. The cytotoxicity of the cytotoxic agent on the cells was analyzed by propidium iodide exclusion techniques and flow cytometric quantitation. Viability of the cells was quantified as the number of cells that excluded the vital dye trypan blue. Sodium pyruvate was dissolved in distilled water and the solution was adjusted to pH 7.4 with calcium, phosphate and magnesium. Solutions were sterile filtered. Stock solutions were prepared so that the vehicle would not be more than 1% of the total volume of the culture media. H-Thymidine Radiosotopic Incorporation Measurement of Cytotoxity. The membrane surfactant enhancers agents (sodium pyruvate and calcium, phosphate and magnesium), was examined for their ability to decrease the Cytotoxity of Doxorubicin to U937 monocytic leukemia cells and normal peripheral blood monocytes. […] Susceptibility studies were conducted to determine the optimal treatment time of the cells with the […] agents prior to treatment of the cells with the cytotoxic agent. The normal cells and U937 leukemic tumor cells were pretreated separately in “wash out” studies with the single agents alone, and in combination, at the optimal concentration described above for various time periods, washed with fresh medium to remove the agents, and treated with the cytotoxic agent. The co-culture of normal and U937 leukemic […] cells was treated essentially in the same manner except that the cells were not treated separately, but co-cultured. […] The cells were then placed in culture medium without the protective agents. […] Normal and U937 tumor cells were co-cultured and the Cytotoxity of Doxorubicin on the cells was determined by viability assays which examined the differential ability of the cytoprotective compositions alone, and in combinations, to protect the normal cells from the Cytotoxity of the chemotherapeutic agent. The cells were isolated and examined for morphological evidence of cytotoxicity or prevention of cytotoxicity. […] DNA synthesis studies using 3Hthymidine (1 uCi/well) were carried out 4 hours prior to termination of the experiment to determine the effect of the formulations on the proliferation of the cells as a measure of the prevention of cytotoxicity and the extent of Doxorubicin-induced cytotoxicity. Propidium iodide exclusion analysis was carried out for direct quantitation of the cytotoxicity and the prevention of cytotoxicity. Each set of studies was performed in triplicate so that statistical analysis of the significant differences between the treatment groups could be conducted. […] Wash-out studies were conducted to determine viability of the peripheral blood monocytes co-cultured with U937 monocytic leukemia cells after 24 hour pretreatment of the cells with the surfactant enhancer, which is also a mitochondrial protective agent, followed by administration of Doxorubicin.

[2] = tested on: patients with lung diseases including COPD; assay: Comparison of inhaled salts of pyruvate, 5 ml of 0.5 mM solution (Table I); conditions: for FEV1: 5 mls of a 0.5 mM pyruvate inhalation solution in COPD and asthmatic patients
Experimental: All previous studies using pyruvate to treat Allergic Rhinitis, Asthmatic and COPD patients used only the sodium salt form of pyruvic acid in saline. The drug products that were tested in the six Phase I/II clinical trial were differing concentrations of sodium pyruvate dissolved in 0.9% sodium chloride solution (Saline). These drug products contained 0.5 mM, 1.5 mM, or 5.0 mM of sodium pyruvate in physiological saline. They were administered to normal volunteers and COPD and asthmatics by inhalation therapy. […] Various sodium pyruvate solutions were evaluated in the lungs for their ability to enhance FEV1 values and reduce coughing, and lung tightness.
The amount of the salts delivered in the 5 ml's of the 0.5 mM pyruvate solutions were compared to the amounts of the salts in 5 ml's of human blood. […] When ethyl pyruvate reacts with oxygen radical like hydrogen peroxide, it is converted to ethane and alcohol and Co2 and acetate. Ethane and alcohol are lung irritants.
This formula can also be made by adding 3% calcium phosphate or dicalcium phosphate to the standard 0.5 mM to 30 mM sodium pyruvate saline solution see Table I.

[3] = tested on: patients with sinus & lung diseases including IPF and COPD; assay: Salts of pyruvate as 20 mM nasal sprays (Table IX)
From the text: They never tested the individual salts for their ability to reduce inflammation or increase lung functions.

[4] = tested on: patients with lung diseases including COPD; assay: Comparison of inhaled salts of pyruvate, 5 ml of 5 mM solution (Table II)
[5] = Viable non-cancerous cells after incubation with anticancer drugs in various media (Table VIII); assay type: cell-based; design: viability: concentration or dose not given beside the values; conditions: non-cancerous cells (normal peripheral blood monocytes)
Experimental: as §1

[6] = Drugs in commercial formula with sodium chloride only
[7] = Drugs in commercial formula with sodium pyruvate with calcium & phosphate & Magnesium ions repeat study
[8] = 5 ml of 0.5 mM solution in physiological saline, inhaled
[9] = 5 ml of 0.5 mM solution, inhaled
[10] = 5 ml of 0.5 mM solution, 1 most negative, 10 best
[11] = 20 mM (0.22%) nasal spray, 1 most negative, 10 best
[12] = 5 ml of 5 mM solution in saline, inhaled
[13] = 5 ml of 5 mM solution, 1 most negative, 10 best
[14] = Drugs in commercial formula with sodium chloride only, read-out: Percentage of viable non-cancerous cells
[15] = Drugs in commercial formula with sodium pyruvate with calcium & phosphate & Magnesium ions repeat study, read-out: Percentage of viable non-cancerous cells
[16] = Drugs in commercial formula with sodium pyruvate with calcium & phosphate & magnesium ions, read-out: Percentage of viable non-cancerous cells
[17] = Drugs in commercial formula with sodium pyruvate without calcium & phosphate & magnesium, read-out: Percentage of viable non-cancerous cells
[18] = drug alone, read-out: Percentage of viable cells after incubation with drugs
[19] = Drugs in commercial formula with sodium pyruvate with calcium & phosphate & magnesium ions
[20] = Drugs in commercial formula with sodium pyruvate without calcium & phosphate & magnesium
[21] = 5 mls of a 0.5 mM inhalation solution
[22] = 20 mM (0.22%) nasal spray in 0.9% sodium chloride

Row | Compound | Percentage of viable non-cancerous cells [1, 6] [%] | Percentage of viable cells after incubation with drugs [1] [%] | Increased in FEV-1% ([3]; in vivo) [%] | Percentage Increase in SaO2 over baseline ([3]; in vivo) | Percentage increase of Nitric Oxide over baseline ([3]; in vivo) [%] | Relief of congestion, coughing and lung tightness ([3]; in vivo) | Increased in FEV-1% lung function [2, 8] [%] | Percentage Increase in SaO2 over baseline [2, 9] | Percentage decrease or increase of Nitric Oxide over baseline [2, 9] | Relief of congestion, coughing and lung tightness [2, 9] | Overall Rating 1-10 [2, 10] | Overall Rating 1-10 [3, 11] | Increased in FEV-1% [4, 12] [%] | Percentage Increase in SaO2 over baseline ([4]; 5 ml of 5 mM solution, inhaled) | Percentage increase of Nitric Oxide over baseline ([4]; 5 ml of 5 mM solution, inhaled) [%] | Relief of congestion, coughing and lung tightness ([4]; 5 ml of 5 mM solution, inhaled) | Overall Rating 1-10 [4, 13] | further results
1 | N.N.O=C([O-])C1(C(=O)[O-])CCC1.[Pt+2] [Carboplatin] | 50 | 42 |  |  |  |  |  |  |  |  |  |  |  |  |  |  |  | Percentage of viable non-cancerous cells [1, 7]: 97%
2 | O=P(O)(O)O [Potassium Phosphate, reference compound] |  |  | 0.0 | No | 0 | 4 |  |  |  |  |  |  |  |  |  |  |  | Increased in FEV-1% lung function ([2]; in vivo): 0%; Overall Rating 1-10 ([2]; in vivo): 3; Percentage Increase in SaO2 over baseline ([2]; in vivo): No; Percentage decrease or increase of Nitric Oxide over baseline ([2]; in vivo): 0%; Relief of congestion, coughing and lung tightness ([2]; in vivo): 4; Overall Rating 1-10 ([3]; in vivo): 3; Increased in FEV-1% ([4]; in vivo): 0%; Overall Rating 1-10 ([4]; in vivo): 3; Percentage Increase in SaO2 over baseline ([4]; in vivo): No; Percentage increase of Nitric Oxide over baseline ([4]; in vivo): 0%; Relief of congestion, coughing and lung tightness ([4]; in vivo): 4
3 | CC(=O)C(=O)[O-].[K+] [Potassium, potassium pyruvate] |  |  | 6.1 | no | 10.0 | 5 | 8.0 | no | −14% | 5 | 7 | 6 | 2.1 | no | 25.0 | 5 | 7 | Irritation [2, 9]: None; FEV1 [2]: lower FEV1 results; Irritation ([3]; in vivo): None; Irritation ([4]; 5 ml of 5 mM solution, inhaled): None
4 | CC(C)(C#N)c1cc(Cn2cncn2)cc(C(C)(C)C#N)c1 [anastrozole] |  |  |  |  |  |  |  |  |  |  |  |  |  |  |  |  |  | viability [5, 14]: 25%; viability [5, 15]: 94%; viability [5, 16]: 86%; viability [5, 17]: 50%; viability [5, 18]: 24%
5 | O=c1[nH]c(=O)n([C@H]2C[C@H](O)[C@@H](CO)O2)cc1F [floxuridine] |  |  |  |  |  |  |  |  |  |  |  |  |  |  |  |  |  | viability [5, 14]: 38%; viability [5, 15]: 91%; viability [5, 16]: 92%; viability [5, 17]: 58%; viability [5, 18]: 38%
6 | CN(Cc1cnc2nc(N)nc(N)c2n1)c1ccc(C(=O)N[C@@H](CCC(=O)O)C(=O)O)cc1 [methotrexate] |  |  |  |  |  |  |  |  |  |  |  |  |  |  |  |  |  | viability [5, 14]: 43%; viability [5, 15]: 98%; viability [5, 16]: 94%; viability [5, 17]: 68%; viability [5, 18]: 42%
7 | O=C1[O][Pt]2([NH][C@@H]3CCCC[C@H]3[NH]2)[O]C1=O [oxaliplatin] | 24 | 23 |  |  |  |  |  |  |  |  |  |  |  |  |  |  |  | Percentage of viable non-cancerous cells [1, 7]: 98%; Percentage of viable non-cancerous cells [1, 19]: 95%; Percentage of viable non-cancerous cells [1, 20]: 41%
8 | Bevacizumab | 27 | 21 |  |  |  |  |  |  |  |  |  |  |  |  |  |  |  | Percentage of viable non-cancerous cells [1, 20]: 40%
9 | Bleomycin | 33 | 31 |  |  |  |  |  |  |  |  |  |  |  |  |  |  |  | Percentage of viable non-cancerous cells [1, 7]: 98%; Percentage of viable non-cancerous cells [1, 19]: 98%; Percentage of viable non-cancerous cells [1, 20]: 47%
10 | aluminum pyruvate |  |  |  |  |  |  | 0 | No | +8.0% | 1 | 3 | 1 | 0 | No | 15.0 | 1 | 4 | reduction of nitric oxide [2, 21]: did not reduce nitric oxide; Increased in FEV-1% [3, 22]: 0.0%; Percentage Increase in SaO2 over baseline [3, 22]: No; Percentage increase of Nitric Oxide over baseline [3, 22]: 00.0%; Relief of congestion, coughing and lung tightness [3, 22]: 1
11 | calcium pyruvate |  |  | 7.0 | 1% | 17.0 | 5 | 10.0 | no | −18% | 5 | 7 | 7 | 1.0 | 1% | 17.0 | 5 | 7 | Irritation [2, 9]: None; FEV1 [2]: 10%; Irritation ([3]; in vivo): None; Irritation ([4]; 5 ml of 5 mM solution, inhaled): None
12 | manganese pyruvate |  |  |  |  |  |  | 3.0 | No | −2.0% | 4 | 3 | 3 | 3.0 | No | 25.0 | 4 | 3 | reduction of nitric oxide [2, 21]: did not reduce nitric oxide; Increased in FEV-1% [3, 22]: 0.0%; Percentage Increase in SaO2 over baseline [3, 22]: No; Percentage increase of Nitric Oxide over baseline [3, 22]: 2.0%; Relief of congestion, coughing and lung tightness [3, 22]: 4
13 | zinc pyruvate |  |  | 1.0 | No | 2.0 | 4 | 8.0 | No | +10% | 4 | 4 | 3 | 1.0 | No | 22.0 | 4 | 3 | Irritation [2, 9]: Yes; increased nitric oxide levels [2, 21]: 10%; reduction of nitric oxide [2, 21]: did not reduce nitric oxide; Irritation ([2]; inhaled into the lungs): irritating; Irritation ([3]; in vivo): Yes; Irritation ([4]; 5 ml of 5 mM solution, inhaled): Yes
